ChEMBL document CHEMBL4387728, “Synthetic glycopeptides reveal specific binding pattern and conformational change at O-mannosylated position of α-dystroglycan by POMGnT1 catalyzed GlcNAc modification” (Bioorg Med Chem, 2019)
Calls of active or inactive are those of the source. No cut-off for these calls is given here. Peptide text beside a SMILES is read from it. * marks the point of attachment. X1 = CC(=O)N[C@H]1[C@H](O[C@H]2[C@@H](O)[C@H](O)[C@@H](CO)O[C@@H]2*)O[C@H](CO)[C@@H](O[C@@H]2O[C@H](CO)[C@H](O)[C@H](O[C@]3(C(=O)O)C[C@H](O)[C@@H](NC(C)=O)[C@H]([C@H](O)[C@H](O)CO)O3)[C@H]2O)[C@@H]1O; X2 = CC(=O)N[C@H]1[C@H](O[C@H]2[C@@H](O)[C@H](O)[C@@H](CO)O[C@@H]2*)O[C@H](CO)[C@@H](O[C@@H]2O[C@H](CO)[C@H](O)[C@H](O)[C@H]2O)[C@@H]1O; Hexanoyl(5-oxo) = CC(=O)CCCC(=O)*

Assays:
Maackia amurensis = experiment: Binding affinity to biotin-labeled Maackia amurensis agglutinin in pH 7.4 Tris buffer by fluorescence microarray method
Datura stramonium = experiment: Binding affinity to biotin-labeled Datura stramonium agglutinin in pH 7.4 Tris buffer by fluorescence microarray method
Arachis hypogaea = experiment: Binding affinity to biotin-labeled Arachis hypogaea agglutinin in pH 7.4 Tris buffer by fluorescence microarray method
[1] = tested on: Sambucus racemosa subsp. sieboldiana; experiment: Binding affinity to biotin-labeled Sambucus sieboldiana agglutinin in pH 7.4 Tris buffer by fluorescence microarray method
Erythrina crista-galli = experiment: Binding affinity to biotin-labeled Erythrina crista-galli agglutinin in pH 7.4 Tris buffer by fluorescence microarray method
Triticum aestivum = experiment: Binding affinity to biotin-labeled Wheat germ agglutinin in pH 7.4 Tris buffer by fluorescence microarray method
Canavalia ensiformis = experiment: Binding affinity to biotin-labeled Canavalia ensiformis agglutinin in pH 7.4 Tris buffer by fluorescence microarray method
[2] = molecular target: Laminin subunit alpha-1 (Homo sapiens) (UniProt P25391); experiment: Binding affinity to biotin-labeled human recombinant laminin-1 at 10 ug/ml in pH 7.4 Tris buffer by fluorescence microarray method
Homo sapiens [3] = organism: Homo sapiens; experiment: Binding affinity to biotin-labeled human recombinant laminin-2 at 10 ug/ml in pH 7.4 Tris buffer by fluorescence microarray method
[4] = molecular target: Lactotransferrin (Homo sapiens) (UniProt P02788); experiment: Binding affinity to biotin-labeled lactoferrin (unknown origin) at 10 ug/ml in pH 7.4 Tris buffer by fluorescence microarray method
[5] = molecular target: Laminin subunit alpha-1 (Homo sapiens) (UniProt P25391); experiment: Binding affinity to biotin-labeled human recombinant laminin-1 at 10 ug/ml in pH 5.6 MES buffer by fluorescence microarray method
[6] = molecular target: Lactotransferrin (Homo sapiens) (UniProt P02788); experiment: Binding affinity to biotin-labeled lactoferrin (unknown origin) at 10 ug/ml in pH 5.6 MES buffer by fluorescence microarray method
Homo sapiens [7] = organism: Homo sapiens; experiment: Binding affinity to biotin-labeled human recombinant laminin-2 at 10 ug/ml in 5.6 MES buffer by fluorescence microarray method
[8] = Binding affinity to biotin-labeled Agaricus bisporus agglutinin in pH 7.4 Tris buffer by fluorescence microarray method

Laminin subunit alpha-1 (Homo sapiens), sequence (P25391 whole entry): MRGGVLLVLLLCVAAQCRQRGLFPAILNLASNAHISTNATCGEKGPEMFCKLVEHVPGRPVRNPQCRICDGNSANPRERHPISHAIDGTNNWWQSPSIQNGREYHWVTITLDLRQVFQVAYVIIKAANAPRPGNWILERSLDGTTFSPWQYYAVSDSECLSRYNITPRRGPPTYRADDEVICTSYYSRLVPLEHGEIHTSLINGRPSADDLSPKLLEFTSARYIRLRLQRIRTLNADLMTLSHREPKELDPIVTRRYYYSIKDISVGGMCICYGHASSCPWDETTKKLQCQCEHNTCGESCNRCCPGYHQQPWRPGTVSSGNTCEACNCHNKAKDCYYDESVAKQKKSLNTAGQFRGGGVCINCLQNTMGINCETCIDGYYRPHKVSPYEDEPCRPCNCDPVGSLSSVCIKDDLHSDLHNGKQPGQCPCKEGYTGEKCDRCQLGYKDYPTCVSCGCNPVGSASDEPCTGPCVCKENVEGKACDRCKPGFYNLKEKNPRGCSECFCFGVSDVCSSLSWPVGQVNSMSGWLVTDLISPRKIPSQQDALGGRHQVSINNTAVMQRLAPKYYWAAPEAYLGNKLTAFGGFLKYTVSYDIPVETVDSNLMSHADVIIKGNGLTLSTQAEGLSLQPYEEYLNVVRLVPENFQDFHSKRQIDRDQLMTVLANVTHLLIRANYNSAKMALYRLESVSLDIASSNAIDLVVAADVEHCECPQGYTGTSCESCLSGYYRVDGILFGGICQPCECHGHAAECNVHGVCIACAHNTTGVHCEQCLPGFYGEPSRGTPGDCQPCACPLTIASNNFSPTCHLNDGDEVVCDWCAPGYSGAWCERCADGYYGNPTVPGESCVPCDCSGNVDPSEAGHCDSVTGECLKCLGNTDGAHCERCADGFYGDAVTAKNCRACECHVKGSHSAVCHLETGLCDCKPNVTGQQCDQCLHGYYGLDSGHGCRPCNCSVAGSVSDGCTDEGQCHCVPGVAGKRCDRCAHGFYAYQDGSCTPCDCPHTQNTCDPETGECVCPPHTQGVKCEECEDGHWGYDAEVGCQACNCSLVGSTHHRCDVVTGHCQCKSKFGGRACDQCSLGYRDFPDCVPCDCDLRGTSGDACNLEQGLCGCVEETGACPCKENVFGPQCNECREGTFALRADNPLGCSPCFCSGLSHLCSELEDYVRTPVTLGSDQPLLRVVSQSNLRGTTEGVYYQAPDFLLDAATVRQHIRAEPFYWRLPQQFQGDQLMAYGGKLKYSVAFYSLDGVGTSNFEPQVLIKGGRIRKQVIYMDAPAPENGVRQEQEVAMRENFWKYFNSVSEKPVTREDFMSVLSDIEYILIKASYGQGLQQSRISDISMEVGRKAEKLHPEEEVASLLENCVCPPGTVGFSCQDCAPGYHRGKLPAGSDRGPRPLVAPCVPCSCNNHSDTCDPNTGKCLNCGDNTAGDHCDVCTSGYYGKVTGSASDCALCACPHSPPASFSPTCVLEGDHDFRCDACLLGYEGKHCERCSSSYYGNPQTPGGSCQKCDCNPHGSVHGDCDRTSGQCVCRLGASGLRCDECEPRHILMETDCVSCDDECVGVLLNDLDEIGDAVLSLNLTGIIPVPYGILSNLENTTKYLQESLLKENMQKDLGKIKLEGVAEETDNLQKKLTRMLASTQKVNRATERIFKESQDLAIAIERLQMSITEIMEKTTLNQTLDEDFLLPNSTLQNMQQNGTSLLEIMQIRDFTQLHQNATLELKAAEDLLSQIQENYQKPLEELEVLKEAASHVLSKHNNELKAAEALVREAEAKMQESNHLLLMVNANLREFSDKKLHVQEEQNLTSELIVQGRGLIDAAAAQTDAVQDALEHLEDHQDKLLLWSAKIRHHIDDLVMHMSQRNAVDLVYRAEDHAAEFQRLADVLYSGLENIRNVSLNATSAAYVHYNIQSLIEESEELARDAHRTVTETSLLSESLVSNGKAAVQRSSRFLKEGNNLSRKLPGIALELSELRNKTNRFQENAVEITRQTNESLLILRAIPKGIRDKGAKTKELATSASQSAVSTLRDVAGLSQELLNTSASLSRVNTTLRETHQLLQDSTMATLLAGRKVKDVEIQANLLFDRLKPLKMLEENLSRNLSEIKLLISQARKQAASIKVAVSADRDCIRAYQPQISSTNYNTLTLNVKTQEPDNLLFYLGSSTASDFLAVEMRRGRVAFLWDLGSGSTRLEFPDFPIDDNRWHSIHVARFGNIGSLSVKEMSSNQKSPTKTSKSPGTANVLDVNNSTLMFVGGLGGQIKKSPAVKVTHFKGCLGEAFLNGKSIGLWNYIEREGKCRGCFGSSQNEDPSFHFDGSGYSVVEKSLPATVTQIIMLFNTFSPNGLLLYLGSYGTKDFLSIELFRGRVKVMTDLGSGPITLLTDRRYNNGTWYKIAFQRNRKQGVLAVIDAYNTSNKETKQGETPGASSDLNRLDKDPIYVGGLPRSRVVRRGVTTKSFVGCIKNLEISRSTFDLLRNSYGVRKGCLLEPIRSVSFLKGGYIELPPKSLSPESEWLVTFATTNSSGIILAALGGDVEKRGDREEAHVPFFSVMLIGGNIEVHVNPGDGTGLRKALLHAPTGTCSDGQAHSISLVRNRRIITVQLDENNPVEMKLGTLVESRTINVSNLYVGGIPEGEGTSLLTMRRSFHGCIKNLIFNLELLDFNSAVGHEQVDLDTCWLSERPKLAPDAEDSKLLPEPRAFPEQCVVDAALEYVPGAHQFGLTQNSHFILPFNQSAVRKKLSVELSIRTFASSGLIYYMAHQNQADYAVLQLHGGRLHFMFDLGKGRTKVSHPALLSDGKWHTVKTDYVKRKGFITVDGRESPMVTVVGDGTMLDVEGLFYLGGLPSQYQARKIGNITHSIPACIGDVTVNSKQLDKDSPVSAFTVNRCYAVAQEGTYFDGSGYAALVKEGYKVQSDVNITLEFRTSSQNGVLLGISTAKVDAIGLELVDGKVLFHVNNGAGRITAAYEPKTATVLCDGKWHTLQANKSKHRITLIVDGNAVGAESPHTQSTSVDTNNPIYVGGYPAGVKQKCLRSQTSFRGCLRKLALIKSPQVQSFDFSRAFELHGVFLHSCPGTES
Lactotransferrin (Homo sapiens), sequence (P02788 whole entry): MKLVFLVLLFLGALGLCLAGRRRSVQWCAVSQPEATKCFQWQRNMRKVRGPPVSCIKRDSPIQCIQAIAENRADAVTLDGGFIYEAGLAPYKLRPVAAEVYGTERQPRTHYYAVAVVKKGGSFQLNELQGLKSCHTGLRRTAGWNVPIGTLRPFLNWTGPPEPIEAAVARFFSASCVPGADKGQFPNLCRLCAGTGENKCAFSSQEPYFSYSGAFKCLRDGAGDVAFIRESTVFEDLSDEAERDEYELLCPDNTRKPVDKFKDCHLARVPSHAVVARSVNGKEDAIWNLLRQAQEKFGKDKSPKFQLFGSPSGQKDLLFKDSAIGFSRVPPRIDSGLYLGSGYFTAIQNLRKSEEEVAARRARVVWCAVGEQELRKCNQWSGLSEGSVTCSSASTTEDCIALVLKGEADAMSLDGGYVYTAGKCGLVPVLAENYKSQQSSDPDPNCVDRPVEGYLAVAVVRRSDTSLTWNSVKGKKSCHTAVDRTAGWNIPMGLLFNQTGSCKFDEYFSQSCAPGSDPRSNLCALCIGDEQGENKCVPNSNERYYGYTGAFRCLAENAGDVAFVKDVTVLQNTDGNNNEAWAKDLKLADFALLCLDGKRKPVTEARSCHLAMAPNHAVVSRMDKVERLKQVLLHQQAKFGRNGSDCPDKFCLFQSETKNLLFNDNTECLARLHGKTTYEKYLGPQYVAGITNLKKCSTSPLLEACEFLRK

Row | Activity (Maackia amurensis) | Activity (Datura stramonium) | Activity (Arachis hypogaea) | Activity [1] | Activity (Erythrina crista-galli) | Activity (Triticum aestivum) | Activity (Canavalia ensiformis) | Activity [2] | Activity (Homo sapiens [3]) | Activity [4] | Activity [5] | Activity [6] | Activity (Homo sapiens [7]) | Activity [8] | Structure (SMILES)
1 | inactive | inactive | Active | Active | Active | Active | Active | Active | inactive | inactive | Active | Active | Active | Active | CC[C@H](C)[C@H](NC(=O)[C@H](C)NC(=O)CNC(=O)[C@H](CCCNC(=N)N)NC(=O)[C@@H](NC(=O)CCCC(C)=O)[C@@H](C)O)C(=O)N[C@H](C(=O)N[C@@H](CCC(N)=O)C(=O)N[C@H](C(=O)N1CCC[C@H]1C(=O)N[C@H](C(=O)N[C@@H](CC(C)C)C(=O)NCC(=O)N1CCC[C@H]1C(=O)N[C@H](C(=O)N[C@@H](CCC(N)=O)C(=O)N1CCC[C@H]1C(=O)N[C@H](C(=O)N[C@@H](CCCNC(=N)N)C(=O)N[C@H](C(N)=O)C(C)C)[C@@H](C)O)[C@@H](C)CC)[C@@H](C)O[C@H]1O[C@H](CO)[C@@H](O)[C@H](O)[C@@H]1O[C@@H]1O[C@H](CO)[C@@H](O[C@@H]2O[C@H](CO)[C@H](O)[C@H](O[C@]3(C(=O)O)C[C@H](O)[C@@H](NC(C)=O)[C@H]([C@H](O)[C@H](O)CO)O3)[C@H]2O)[C@H](O)[C@H]1NC(C)=O)[C@@H](C)O[C@H]1O[C@H](CO)[C@@H](O)[C@H](O)[C@@H]1O[C@@H]1O[C@H](CO)[C@@H](O[C@@H]2O[C@H](CO)[C@H](O)[C@H](O[C@]3(C(=O)O)C[C@H](O)[C@@H](NC(C)=O)[C@H]([C@H](O)[C@H](O)CO)O3)[C@H]2O)[C@H](O)[C@H]1NC(C)=O)[C@@H](C)CC ({Hexanoyl(5-oxo)}-TRGAIIQT(X1)PT(X1)LGPIQPTRV-NH2)
2 | inactive | inactive | Active | Active | Active | Active | Active | Active | inactive | inactive | Active | Active | Active | Active | CC[C@H](C)[C@H](NC(=O)[C@H](C)NC(=O)CNC(=O)[C@H](CCCNC(=N)N)NC(=O)[C@@H](NC(=O)CCCC(C)=O)[C@@H](C)O)C(=O)N[C@H](C(=O)N[C@@H](CCC(N)=O)C(=O)N[C@H](C(=O)N1CCC[C@H]1C(=O)N[C@H](C(=O)N[C@@H](CC(C)C)C(=O)NCC(=O)N1CCC[C@H]1C(=O)N[C@H](C(=O)N[C@@H](CCC(N)=O)C(=O)N1CCC[C@H]1C(=O)N[C@H](C(=O)N[C@@H](CCCNC(=N)N)C(=O)N[C@H](C(N)=O)C(C)C)[C@@H](C)O[C@H]1O[C@H](CO)[C@@H](O)[C@H](O)[C@@H]1O[C@@H]1O[C@H](CO)[C@@H](O[C@@H]2O[C@H](CO)[C@H](O)[C@H](O[C@]3(C(=O)O)C[C@H](O)[C@@H](NC(C)=O)[C@H]([C@H](O)[C@H](O)CO)O3)[C@H]2O)[C@H](O)[C@H]1NC(C)=O)[C@@H](C)CC)[C@@H](C)O)[C@@H](C)O[C@H]1O[C@H](CO)[C@@H](O)[C@H](O)[C@@H]1O[C@@H]1O[C@H](CO)[C@@H](O[C@@H]2O[C@H](CO)[C@H](O)[C@H](O[C@]3(C(=O)O)C[C@H](O)[C@@H](NC(C)=O)[C@H]([C@H](O)[C@H](O)CO)O3)[C@H]2O)[C@H](O)[C@H]1NC(C)=O)[C@@H](C)CC ({Hexanoyl(5-oxo)}-TRGAIIQT(X1)PTLGPIQPT(X1)RV-NH2)
3 | inactive | inactive | Active | Active | Active | Active | Active | Active | inactive | inactive | Active | Active | Active | Active | CC[C@H](C)[C@H](NC(=O)[C@H](C)NC(=O)CNC(=O)[C@H](CCCNC(=N)N)NC(=O)[C@@H](NC(=O)CCCC(C)=O)[C@@H](C)O)C(=O)N[C@H](C(=O)N[C@@H](CCC(N)=O)C(=O)N[C@H](C(=O)N1CCC[C@H]1C(=O)N[C@H](C(=O)N[C@@H](CC(C)C)C(=O)NCC(=O)N1CCC[C@H]1C(=O)N[C@H](C(=O)N[C@@H](CCC(N)=O)C(=O)N1CCC[C@H]1C(=O)N[C@H](C(=O)N[C@@H](CCCNC(=N)N)C(=O)N[C@H](C(N)=O)C(C)C)[C@@H](C)O)[C@@H](C)CC)[C@@H](C)O)[C@@H](C)O[C@H]1O[C@H](CO)[C@@H](O)[C@H](O)[C@@H]1O[C@@H]1O[C@H](CO)[C@@H](O[C@@H]2O[C@H](CO)[C@H](O)[C@H](O[C@]3(C(=O)O)C[C@H](O)[C@@H](NC(C)=O)[C@H]([C@H](O)[C@H](O)CO)O3)[C@H]2O)[C@H](O)[C@H]1NC(C)=O)[C@@H](C)CC ({Hexanoyl(5-oxo)}-TRGAIIQT(X1)PTLGPIQPTRV-NH2)
4 | inactive | inactive | Active | Active | Active | Active | Active | Active | inactive | inactive | Active | Active | Active | Active | CC[C@H](C)[C@H](NC(=O)[C@H](C)NC(=O)CNC(=O)[C@H](CCCNC(=N)N)NC(=O)[C@@H](NC(=O)CCCC(C)=O)[C@@H](C)O)C(=O)N[C@H](C(=O)N[C@@H](CCC(N)=O)C(=O)N[C@H](C(=O)N1CCC[C@H]1C(=O)N[C@H](C(=O)N[C@@H](CC(C)C)C(=O)NCC(=O)N1CCC[C@H]1C(=O)N[C@H](C(=O)N[C@@H](CCC(N)=O)C(=O)N1CCC[C@H]1C(=O)N[C@H](C(=O)N[C@@H](CCCNC(=N)N)C(=O)N[C@H](C(N)=O)C(C)C)[C@@H](C)O[C@H]1O[C@H](CO)[C@@H](O)[C@H](O)[C@@H]1O[C@@H]1O[C@H](CO)[C@@H](O[C@@H]2O[C@H](CO)[C@H](O)[C@H](O)[C@H]2O)[C@H](O)[C@H]1NC(C)=O)[C@@H](C)CC)[C@@H](C)O[C@H]1O[C@H](CO)[C@@H](O)[C@H](O)[C@@H]1O[C@@H]1O[C@H](CO)[C@@H](O[C@@H]2O[C@H](CO)[C@H](O)[C@H](O)[C@H]2O)[C@H](O)[C@H]1NC(C)=O)[C@@H](C)O[C@H]1O[C@H](CO)[C@@H](O)[C@H](O)[C@@H]1O[C@@H]1O[C@H](CO)[C@@H](O[C@@H]2O[C@H](CO)[C@H](O)[C@H](O)[C@H]2O)[C@H](O)[C@H]1NC(C)=O)[C@@H](C)CC ({Hexanoyl(5-oxo)}-TRGAIIQT(X2)PT(X2)LGPIQPT(X2)RV-NH2)
